Assay results as given in patent US5629298A, “Adenosine as a positive inotrop in the compromised heart” (University of Massachusetts Medical Center, priority 1995, dated 1997).
Read-outs that look alike come from different tables or passages of the source.

What was measured:
[1] = test system: cultured ventricular myocytes; experiment: cAMP content of cultured ventricular myocytes (125I-cAMP RIA); format: cell-based, rat; conditions: Rattus norvegicus, Ventricular myocyte, 10 min
Protocol: When myocytes were to be used for biochemical studies, each of the culture dishes was preincubated for 2 hours with 1 ml of MEM containing 33 μg of laminin in a 37° C. incubator gassed with 5% CO2 in room air. The laminin solution was removed prior to myocyte seeding. After seeding, the dishes were incubated for an additional 2 hours. The settling and short term culture procedures were performed to purify the myocytes so that >95% of the myocytes adhering to the dishes were rod shaped.
Cyclic AMP levels were determined in cultures of ventricular myocytes according to the following method. After the 2-hour incubation period, the MEM was aspirated and replaced with 2 ml of fresh MEM. Adenosine agonists, ISO, or adenosine antagonists were added to the medium bathing the cells at the concentrations and times indicated. The experiment was terminated by removing the medium from the dish and adding 200 μl of 1N HCl over the cultured myocyte surface. The dishes were then frozen in liquid N2 and stored at -70° C. or held on ice momentarily until extraction was initiated.
For assay, the contents of the dishes were transferred (using 1 ml of distilled/deionized H2 O) into microcentrifuge tubes. The extracts were heated for 1 hour at 57° C. and sonicated for 10 minutes. The extracts were then centrifugated at 14,000 x g for 15 minutes. The supernatant was removed, evaporated, reconstituted in 500 μl of 50 mM sodium acetate buffer and assayed for cAMP using an ^125 I-cAMP RIA kit (Amersham). The pellet was solubilized with 0.1N NaOH and protein determined. The cAMP values are reported in pmol cAMP/mg protein of the extract pellet (total cell protein). This cAMP assay procedure routinely provided recovery values in excess of 90%.

rat ventricular myocytes = experiment: Contractile function of individual ventricular myocytes (line scan camera edge detection, paced at 0.5 Hz); format: cell-based; conditions: for +dL/dtmax, maximal rate of shortening / -dL/dtmax, maximal rate of relaxation / DS, duration of shortening / LC, maximum length change (shortening) with contraction / TPS, time-to-peak shortening / TR, time to 75% relaxation: mean ± SE
Protocol: Primary cultures of adult rat ventricular myocytes were prepared essentially according to previously described methods (Romano et al., Am. J. Physiol. 257:H1088 (1989)). Two male Sprague-Dawley rats (Charles River, Wilmington, Mass. or Harlan, Indianapolis, Ind.) were decapitated, and the hearts were rapidly excised and constant pressure (70 cm H2) and nonrecirculated) perfused for 10 minutes through the aortas with filtered (0.45 μm membrane filter) perfusing solution (NaCl, 118 mM; glucose, 10 mM; NaHCO3 25 mM; KCl, 4.69 mM; MgSO4 1.18 mM; and KH2 PO4, 1.18 mM; (pH 7.4)), to which […] was added, at 37° C. After equilibration, the hearts were constant pressure perfused with fresh physiological saline ("PS") containing no added Ca^2+ until spontaneous contractions ceased (i.e., ~30 seconds). The hearts were then perfused for 4-10 minutes in a nonrecirculating manner with PS containing 0.73 mg/ml collagenase, 0.16 mg/ml hyaluronidase, 1 mg/ml recrystallized bovine serum albumin ("BSA") and 48.4 μM Ca^2+ at a rate of 3-4 ml/min/heart. Ventricles, free of atria, were removed from the perfusion system, cut into 8 pieces and placed in a 50 ml Erlenmeyer flask with 5 ml of PS containing 0.73 mg/ml collagenase, 0.16 mg/ml hyaluronidase, 2.5 mg/ml BSA, and 50 μM Ca^2+ (incubation solution). The flask was gently shaken (40 cycles/min) in a reciprocating water bath with continuous gassing (95% O2, 5% CO2) for 7 minutes at 37° C. The incubation solution was aspirated and this shaking procedure was repeated with fresh incubation solution 3-5 times depending on the likelihood that the tissue was ready to dissociate. After the final incubation period, the solution was aspirated and replaced with 10 ml of fresh incubation solution. The flask was then shaken rapidly (120 cycles/min) for 10 minutes with gassing to dissociate the myocytes. The flask contents were filtered through a 250 μm nylon mesh into a 50 ml polypropylene centrifuge tube, to which 40 ml of PS containing 5.95 mg/ml BSA and 99.7 μm Ca^2+ (wash solution) was gradually added.
The myocytes were allowed to settle for 15 minutes, and the upper two thirds of the wash solution was aspirated. Upon the addition of 30-35 ml of wash solution, this settling step was repeated. The wash solution was aspirated and the myocyte pellet was resuspended in 10 ml of minimum essential medium ("MEM"). The myocyte suspension was allowed to settle for 5 minutes and then brought to a final volume of 22 ml with MEM. Two milliliters of the myocyte suspension was seeded onto each of 60 mm culture dishes containing 2 ml of MEM.
The contractile function of individual myocytes was assessed by dispersing 50-100 cells in a 506 μl myocyte chamber (11×23×2 mm deep). The chamber (FIG. 1) was continuously suffused (850 μl/min) with fresh suffusion solution ("SS") in mM: 136.4 NaCl, 4.7 KCl, 1.0 CaCl2, 10 hydroxyethylpiperzine-ethanesulfonicacid (HEPES), 1.0 NaHCO3, 1.2 MgSO4, 1.2 KH2 PO4, 10 glucose, 0.6 ascorbate, 1.0 pyruvate) at 20° C. The chamber was mounted on an inverted microscope stage and contained platinum wire electrodes for initiating myocyte contraction at 0.5 Hz (voltage 10% above threshold for 5 msec duration).
The image of the myocyte was projected via an inverted microscope at 300× onto a line scan camera (Fairchild, Model 1600R) containing a linear array (1×3456) of photodiodes. When aligned with the longitudinal axis of the cell the camera detected the movement of the 2 ends of the myocyte upon contraction (shortening and relengthening). […] When the myocyte was transilluminated, both ends of the cell were easily discriminated. Myocyte length and length change with respect to time for a single contraction was measured by determining the pixels in which the appropriate transitions between light and dark occurred. The line scan camera was calibrated with a stage micrometer scaled in 10 μm divisions. The signals from the camera were directed to a Hewlett Packard computer (Model Vectra RS/20C). […]

[2] = read-out: increase in myocyte cAMP
[3] = Rattus norvegicus, Ventricular myocyte, read-out: increase in TPS
[4] = Rattus norvegicus, Ventricular myocyte, read-out: increase in TR
[5] = Table 4, CGS-21680 10^-4 M, cumulative dose-response, every 10 min, N = 6
[6] = Table 4, CGS-21680 10^-5 M, cumulative dose-response, every 10 min, N = 6
[7] = Table 4, CGS-21680 10^-6 M, cumulative dose-response, every 10 min, N = 9
[8] = Table 4, CGS-21680 10^-7 M, cumulative dose-response, every 10 min, N = 9
[9] = Table 4, CGS-21680 10^-8 M, cumulative dose-response, every 10 min, N = 8
[10] = Table 5, CGS-21680 and/or CGS-15943 at 10^-5 M, 10 min, N = 6

`CCNC(=O)[C@H]1O[C@@H](n2cnc3c(N)nc(NCCc4ccc(CCC(=O)O)cc4)nc32)[C@H](O)[C@@H]1O` [CGS-21680, 2-p-(2-carboxy-ethyl)phenethyl-amino-5'-N-ethylcarboxamido-adenosine] was tested. Which activation at 1 µM [1, 2] did it give?
Its activation at 1 µM is 77%.

And the activation at 10 µM [1, 2]?
Its activation at 10 µM is 174%.

What about the EC50 ([1]; read-out: EC50 for increase in myocyte cAMP) of the same compound?
Its EC50 is 1150 ± 370 nM.

And the “effect on -dL/dtmax” value (rat ventricular myocytes; CGS-21680, Table 4 concentrations)?
Its value is “did not affect”.

And the “contractility variables compared to 1 μM CGS-21680 in the absence of DPCPX” value (rat ventricular myocytes; CGS-21680 at 1 μM in the presence of 0.2 μM DPCPX)?
The value was “no further increases”.

And the EC50 (rat ventricular myocytes; Rattus norvegicus, Ventricular myocyte, read-out: EC50 for +dL/dtmax)?
The EC50 was 13.2 ± 5.6 nM.

And the EC50 (rat ventricular myocytes; Rattus norvegicus, Ventricular myocyte, read-out: EC50 for DS)?
The EC50 was 26 ± 5.4 nM.

What about the EC50 (rat ventricular myocytes; Rattus norvegicus, Ventricular myocyte, read-out: EC50 for LC) of the same compound?
Its EC50 is 6.1 ± 2 nM.

And the EC50 (rat ventricular myocytes; Rattus norvegicus, Ventricular myocyte, read-out: EC50 for TPS)?
The EC50 was 48.2 ± 6.7 nM.

And the EC50 (rat ventricular myocytes; Rattus norvegicus, Ventricular myocyte, read-out: EC50 for TR)?
The EC50 was 28.9 ± 8.7 nM.

What about the activation at 0.1 µM (rat ventricular myocytes; Rattus norvegicus, Ventricular myocyte, read-out: increase in +dL/dtmax) of the same compound?
The activation at 0.1 µM was 27%.

And the activation at 0.1 µM (rat ventricular myocytes; Rattus norvegicus, Ventricular myocyte, read-out: increase in DS)?
The activation at 0.1 µM was 32%.

And the activation at 0.1 µM (rat ventricular myocytes; Rattus norvegicus, Ventricular myocyte, read-out: increase in LC)?
Its activation at 0.1 µM is 28%.

And the activation at 0.01 µM (rat ventricular myocytes; [3])?
Its activation at 0.01 µM is 11%.

And the activation at 0.1 µM (rat ventricular myocytes; [3])?
The activation at 0.1 µM was 30%.

What about the activation at 0.01 µM (rat ventricular myocytes; [4]) of the same compound?
The activation at 0.01 µM was 12%.

What about the activation at 0.1 µM (rat ventricular myocytes; [4]) of the same compound?
The activation at 0.1 µM was 22%.

And the “+dL/dtmax, maximal rate of shortening” value (rat ventricular myocytes; [5])?
Its value is 158 ± 14 μm/msec.

And the “-dL/dtmax, maximal rate of relaxation” value (rat ventricular myocytes; [5])?
The value was 108 ± 16 μm/msec.

What about the “DS, duration of shortening” value (rat ventricular myocytes; [5]) of the same compound?
The value was 404 ± 17 ms.

What about the “LC, maximum length change (shortening) with contraction” value (shortened to “LC, maximum length change (shortening)”) (rat ventricular myocytes; [5]) of the same compound?
The value was 22 ± 2 μm.

What about the “TPS, time-to-peak shortening” value (rat ventricular myocytes; [5]) of the same compound?
Its value is 156 ± 3 ms.

What about the “TR, time to 75% relaxation” value (rat ventricular myocytes; [5]) of the same compound?
The value was 322 ± 12 ms.

What about the “+dL/dtmax, maximal rate of shortening” value (rat ventricular myocytes; [6]) of the same compound?
The value was 187 ± 13 μm/msec.

What about the “-dL/dtmax, maximal rate of relaxation” value (rat ventricular myocytes; [6]) of the same compound?
The value was 127 ± 13 μm/msec.

What about the “DS, duration of shortening” value (rat ventricular myocytes; [6]) of the same compound?
The value was 460 ± 18 ms.

What about the “LC, maximum length change (shortening)” value (rat ventricular myocytes; [6]) of the same compound?
Its value is 26 ± 3 μm.

And the “TPS, time-to-peak shortening” value (rat ventricular myocytes; [6])?
The value was 192 ± 4 ms.

What about the “TR, time to 75% relaxation” value (rat ventricular myocytes; [6]) of the same compound?
Its value is 397 ± 14 ms.

And the “+dL/dtmax, maximal rate of shortening” value (rat ventricular myocytes; [7])?
The value was 188 ± 11 μm/msec.

And the “-dL/dtmax, maximal rate of relaxation” value (rat ventricular myocytes; [7])?
The value was 121 ± 15 μm/msec.

What about the “DS, duration of shortening” value (rat ventricular myocytes; [7]) of the same compound?
The value was 458 ± 12 ms.

What about the “LC, maximum length change (shortening)” value (rat ventricular myocytes; [7]) of the same compound?
The value was 24 ± 2 μm.

What about the “TPS, time-to-peak shortening” value (rat ventricular myocytes; [7]) of the same compound?
Its value is 183 ± 5 ms.

What about the “TR, time to 75% relaxation” value (rat ventricular myocytes; [7]) of the same compound?
The value was 390 ± 13 ms.

What about the “+dL/dtmax, maximal rate of shortening” value (rat ventricular myocytes; [8]) of the same compound?
Its value is 183 ± 14 μm/msec.

What about the “-dL/dtmax, maximal rate of relaxation” value (rat ventricular myocytes; [8]) of the same compound?
Its value is 126 ± 12 μm/msec.

And the “DS, duration of shortening” value (rat ventricular myocytes; [8])?
The value was 431 ± 14 ms.

And the “LC, maximum length change (shortening)” value (rat ventricular myocytes; [8])?
Its value is 23 ± 2 μm.

And the “TPS, time-to-peak shortening” value (rat ventricular myocytes; [8])?
Its value is 169 ± 3 ms.

And the “TR, time to 75% relaxation” value (rat ventricular myocytes; [8])?
Its value is 361 ± 12 ms.

And the “+dL/dtmax, maximal rate of shortening” value (rat ventricular myocytes; [9])?
The value was 162 ± 13 μm/msec.

What about the “-dL/dtmax, maximal rate of relaxation” value (rat ventricular myocytes; [9]) of the same compound?
Its value is 125 ± 11 μm/msec.

What about the “DS, duration of shortening” value (rat ventricular myocytes; [9]) of the same compound?
The value was 363 ± 15 ms.

What about the “LC, maximum length change (shortening)” value (rat ventricular myocytes; [9]) of the same compound?
Its value is 22 ± 2 μm.

And the “TPS, time-to-peak shortening” value (rat ventricular myocytes; [9])?
Its value is 144 ± 4 ms.

And the “TR, time to 75% relaxation” value (rat ventricular myocytes; [9])?
Its value is 334 ± 10 ms.

What about the “+dL/dtmax, maximal rate of shortening” value (rat ventricular myocytes; [10]) of the same compound?
Its value is 192 ± 11 μm/msec.

And the “-dL/dtmax, maximal rate of relaxation” value (rat ventricular myocytes; [10])?
Its value is 122 ± 12 μm/msec.

And the “DS, duration of shortening” value (rat ventricular myocytes; [10])?
Its value is 486 ± 15 ms.

And the “LC, maximum length change (shortening)” value (rat ventricular myocytes; [10])?
Its value is 25 ± 2 μm.

And the “TPS, time-to-peak shortening” value (rat ventricular myocytes; [10])?
Its value is 190 ± 4 ms.

What about the “TR, time to 75% relaxation” value (rat ventricular myocytes; [10]) of the same compound?
The value was 392 ± 13 ms.

What about the EC50 (rat ventricular myocytes; read-out: EC50 for the contractile variables (length change, duration of shortening, time to peak shortening, time to 75% relaxation, +dL/dtmax), range over the five variables) of the same compound?
The EC50 was 6 to 48 nM.
